Like-named read-outs stand apart in the source and are kept apart here.
Key:
[1] = tested on: hydrochloric acid-induced micturition model rats; conditions: […] (w/v %), 0.2 mL single intravesical administration two days after HCl, cystometry seven days after HCl, vs. control (saline); for Intercontraction interval: FIG. 2
Description: Chondroitin sulfate derivatives prepared in compliance with the methods of Examples 3, 4 and 5 were dissolved in phosphate-buffered saline to prepare the test substances indicated below.
(§1) Two days after continuous instillation of hydrochloric acid, 0.2 mL of each test substance were administered transurethrally using a catheter (PE50) and retained in the bladder for 30 minutes under anesthesia.
Intercontraction interval and single voided volume were measured after changes in intravesical pressure had stabilized.

[2] = tested on: hydrochloric acid-induced micturition model rats; assay: Test Example B3: urinary function, rat hydrochloric acid-induced micturition model (comparison of conjugates and mixture); assay type: in vivo; conditions: 3% (w/v %) conjugate or mixture of 3% CS+[…] BTM, 0.2 mL single intravesical administration, cystometry seven days after HCl, vs. control
Description: A chondroitin sulfate derivative prepared in compliance with the method of Example 2 was dissolved in phosphate-buffered saline to prepare the test substances indicated below.
as §1

[3] = tested on: hydrochloric acid-induced micturition model rats; assay: Test Example B1: urinary function, rat hydrochloric acid-induced micturition model (steroid comparison); conditions: […] (w/v %), 0.2 mL single intravesical administration two days after HCl, cystometry seven days after HCl, vs. control (saline); for Intercontraction interval: FIG. 1

Substance	Single voided volume [1]	Intercontraction interval [1]	Single voided volume [2]	Intercontraction interval ([2]; FIG. 4)	Single voided volume [3]	Intercontraction interval [3]
CS introduced with 21-Isoleucyl-Triamcinolone Acetonide [CS-Ile-TA]	significant increase in single voided volume	significantly increased intercontraction interval				
CS introduced with 21-Glycyl-Triamcinolone Acetonide [CS-Gly-TA]	significant increase in single voided volume	significantly increased intercontraction interval				
CS introduced with 21-β-Alanyl-Betamethasone [CS-βAla-BTM]			significant increase in single voided volume	significantly increased intercontraction interval	significant increase in single voided volume	significantly increased intercontraction interval
CS introduced with 21-β-Alanyl-Prednisolone [CS-βAla-PRED]					significant increase in single voided volume	significantly increased intercontraction interval
CS introduced with 21-β-Alanyl-Triamcinolone Acetonide [CS-βAla-TA]	significant increase in single voided volume	significantly increased intercontraction interval			significant increase in single voided volume	significantly increased intercontraction interval
